Results as given in paper PMC9602792, “Preclinical evaluation of the epithelial sodium channel inhibitor AZD5634 and implications on human translation” (American Journal of Physiology - Lung Cellular and …, 2022).

Biological target: T1, ENaC (Homo sapiens, UniProt P37088+P51168+P51170)
T1 construct: host or cells: primary normal human bronchial epithelial cells, ALI culture
T1 sequence (P37088 1-669): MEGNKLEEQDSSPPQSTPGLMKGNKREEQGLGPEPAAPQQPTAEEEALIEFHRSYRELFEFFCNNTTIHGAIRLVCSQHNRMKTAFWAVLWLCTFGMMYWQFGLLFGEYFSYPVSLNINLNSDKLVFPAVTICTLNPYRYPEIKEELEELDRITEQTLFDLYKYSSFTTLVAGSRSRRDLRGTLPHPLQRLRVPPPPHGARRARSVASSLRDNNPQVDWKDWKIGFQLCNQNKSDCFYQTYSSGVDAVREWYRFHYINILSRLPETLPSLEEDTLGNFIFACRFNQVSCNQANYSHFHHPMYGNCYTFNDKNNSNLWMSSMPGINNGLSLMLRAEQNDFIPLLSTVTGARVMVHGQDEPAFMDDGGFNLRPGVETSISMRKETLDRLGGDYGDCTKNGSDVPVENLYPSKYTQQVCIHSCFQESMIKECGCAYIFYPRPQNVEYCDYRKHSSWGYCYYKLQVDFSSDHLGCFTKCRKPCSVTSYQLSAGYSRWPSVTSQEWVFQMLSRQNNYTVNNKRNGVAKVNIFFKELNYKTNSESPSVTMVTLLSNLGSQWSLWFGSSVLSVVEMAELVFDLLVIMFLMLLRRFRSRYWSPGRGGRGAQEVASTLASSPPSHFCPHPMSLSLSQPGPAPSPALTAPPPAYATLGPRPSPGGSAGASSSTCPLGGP
T1 sequence (P51168 1-640): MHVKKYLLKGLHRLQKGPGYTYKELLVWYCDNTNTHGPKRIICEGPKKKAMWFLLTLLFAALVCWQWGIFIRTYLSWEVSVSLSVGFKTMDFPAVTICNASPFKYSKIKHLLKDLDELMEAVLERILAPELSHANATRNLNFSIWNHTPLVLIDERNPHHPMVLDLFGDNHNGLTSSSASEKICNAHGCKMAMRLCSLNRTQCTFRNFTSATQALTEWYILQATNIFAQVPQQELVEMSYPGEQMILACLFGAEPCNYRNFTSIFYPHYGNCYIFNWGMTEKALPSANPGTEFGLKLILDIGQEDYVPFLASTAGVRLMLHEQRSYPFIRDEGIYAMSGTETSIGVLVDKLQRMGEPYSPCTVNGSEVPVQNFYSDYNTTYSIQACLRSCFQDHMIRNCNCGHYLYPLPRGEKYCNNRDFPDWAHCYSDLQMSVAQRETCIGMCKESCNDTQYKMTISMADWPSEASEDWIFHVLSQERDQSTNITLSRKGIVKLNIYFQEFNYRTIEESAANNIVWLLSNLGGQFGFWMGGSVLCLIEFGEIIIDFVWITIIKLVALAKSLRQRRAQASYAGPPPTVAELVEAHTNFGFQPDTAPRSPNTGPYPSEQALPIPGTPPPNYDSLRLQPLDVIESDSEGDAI
T1 sequence (P51170 1-649): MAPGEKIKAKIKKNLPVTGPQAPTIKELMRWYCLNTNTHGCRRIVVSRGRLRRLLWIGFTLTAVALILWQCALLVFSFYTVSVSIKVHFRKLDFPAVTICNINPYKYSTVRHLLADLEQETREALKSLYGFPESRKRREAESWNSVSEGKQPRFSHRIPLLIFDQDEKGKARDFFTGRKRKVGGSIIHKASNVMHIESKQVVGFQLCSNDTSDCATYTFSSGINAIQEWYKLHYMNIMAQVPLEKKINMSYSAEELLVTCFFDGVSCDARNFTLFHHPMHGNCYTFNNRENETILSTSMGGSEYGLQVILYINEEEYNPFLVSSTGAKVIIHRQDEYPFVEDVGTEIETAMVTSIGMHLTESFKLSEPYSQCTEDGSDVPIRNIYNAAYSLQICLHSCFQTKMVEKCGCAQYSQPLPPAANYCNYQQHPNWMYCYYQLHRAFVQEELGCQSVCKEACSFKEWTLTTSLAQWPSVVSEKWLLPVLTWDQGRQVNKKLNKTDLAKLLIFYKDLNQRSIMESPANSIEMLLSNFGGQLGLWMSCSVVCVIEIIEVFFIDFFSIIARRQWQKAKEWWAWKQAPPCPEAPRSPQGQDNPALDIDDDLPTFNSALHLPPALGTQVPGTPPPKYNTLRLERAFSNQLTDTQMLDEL
Test: Ussing chamber Isc in F508del-homozygous CF HBEC cultures
Format: cell-based
Experimental: Using previously described techniques ([2], [37]), epithelial cells were harvested from excised lung tissue derived from CF donors homozygous for F508del CFTR, expanded, and grown until confluency was attained. […] To stimulate fresh mucus secretion and formation of an even ASL layer, the cells were washed 48–72 h before experimentation with PneumaCult ALI media (80 µL), added apically, and then aspirated following 30–45 min incubation at 37°C. The washing process was repeated with a 15-min incubation period and the mucus layer was allowed to reestablish, after which the cells were treated with 1 µL of AZD5634 (1 µM, apical), alone and in combination with lumacaftor and ivacaftor (luma/iva; 3 µM/10 µM, basolateral). PBS (1% DMSO, apical) served as a vehicle control. […] Only passage 1 and 2 monolayers were used for these studies.
CFTR-dependent ion transport electrophysiology was measured in HBEC cultures by Isc using modified P2300 Ussing chambers (Physiologic Instruments, San Diego, CA) as previously described ([37], [38]). […] All chambers were maintained at 37°C and agonist stimulation was initiated within 15 min of placement in the chambers.
Descriptive statistics were calculated and means compared using unpaired or paired t tests, or ANOVA, with post hoc analyses conducted for multiple comparisons where appropriate. For analyses of functional anatomy of en bloc trachea, a mixed linear model was used that corrected for within-animal correlation. All tests were two-sided and were computed using GraphPad Prism (GraphPad Software, Inc., La Jolla, CA). P-values <0.05 were considered significant. Statistics are reported as means ± SE, unless indicated otherwise.

NC(=NCc1ccccc1)NC(=O)c1nc(Cl)c(N)nc1N [benzamil, reference compound]
incremental Isc change (at 100 nM): −2.7 ± 1.5 | cumulative ΔIsc (at the maximum concentration (10,000 nM)): −12.1 ± 3.5
